Source: patent US9102591B2, “Benzamides” (H. Lundbeck A/S, priority 2012, dated 2015)

Target: P2X7 receptor (Homo sapiens (Human), UniProt Q99572)
Experiment: P2X7 FLIPR assay (BzATP-stimulated calcium fluorescence, antagonist IC50)
Assay type: cell-based
Details: not given
Procedure, shortened: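 Cells expressing P2X7 receptor (human, rat or mouse), plated 24 hours earlier in low-serum medium, loaded with Fluo-4 NW dye (30 min 37° C, 30 min room temperature).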

Sequence of P2X7 receptor (Q99572 whole entry): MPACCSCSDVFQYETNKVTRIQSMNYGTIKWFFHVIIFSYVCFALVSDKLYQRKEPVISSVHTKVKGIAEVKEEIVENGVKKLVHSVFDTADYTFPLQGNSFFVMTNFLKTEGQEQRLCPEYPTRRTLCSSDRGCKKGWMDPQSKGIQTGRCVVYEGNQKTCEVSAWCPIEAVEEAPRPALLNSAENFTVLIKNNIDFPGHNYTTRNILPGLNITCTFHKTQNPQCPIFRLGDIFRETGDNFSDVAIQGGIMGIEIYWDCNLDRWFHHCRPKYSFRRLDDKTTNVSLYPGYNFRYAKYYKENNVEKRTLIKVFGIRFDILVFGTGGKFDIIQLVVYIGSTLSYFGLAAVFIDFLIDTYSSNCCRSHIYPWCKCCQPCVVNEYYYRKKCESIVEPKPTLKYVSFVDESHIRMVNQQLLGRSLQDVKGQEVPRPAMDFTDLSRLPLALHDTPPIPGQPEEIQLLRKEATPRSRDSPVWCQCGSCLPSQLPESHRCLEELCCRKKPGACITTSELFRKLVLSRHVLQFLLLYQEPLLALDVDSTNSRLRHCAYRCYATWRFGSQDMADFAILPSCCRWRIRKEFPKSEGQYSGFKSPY

Going from O=C(NCC1(c2ccc(F)nc2)CCC(F)(F)CC1)c1ccccc1F [N-((4,4-difluoro-1-(6-fluoropyridin-3-yl)cyclohexyl)methyl)-] [N-((4,4-difluoro-1-(6-fluoropyridin-3-yl)cyclohexyl)methyl)-2-fluorobenzamide] to O=C(NCC1(c2ccc(F)nc2)CCC(F)(F)CC1)c1cccc(Cl)c1Cl [2,3-dichloro-N-[[4,4-difluoro-1-(6-fluoro-3-pyridyl)cyclohexyl]methyl]benzamide], the IC50 falls from 190 nM to 0.28 nM (680-fold).

Compared with Cc1ncc(C(CNC(=O)c2cccc(Cl)c2Cl)C2CCOCC2)cn1 (single isomer, unassigned; (+)) [(+)2,3-dichloro-N-[2-(2-methylpyrimidin-5-yl)-2-tetrahydropy] [(+)2,3-dichloro-N-[2-(2-methylpyrimidin-5-yl)-2-tetrahydropyran-4-yl-ethyl]benzamide], Cc1ncc(C(CNC(=O)c2ccccc2Cl)C2CCOCC2)cn1 (single isomer, unassigned; (+)) [(+)2-chloro-N-[2-(2-methylpyrimidin-5-yl)-2-tetrahydropyran-] [(+)2-chloro-N-[2-(2-methylpyrimidin-5-yl)-2-tetrahydropyran-4-yl-ethyl]benzamide] is 35-fold higher in IC50: 28 nM for the first, 970 nM for the second. The first is the more potent here.

Compared with CC(C)(O)c1ccc(C(CNC(=O)c2cccc(Cl)c2Cl)CC2CC2)cn1 (single isomer, unassigned; (-)) [(−)2,3-dichloro-N-[3-cyclopropyl-2-[6-(1-hydroxy-1-methyl-et] [(−)2,3-dichloro-N-[3-cyclopropyl-2-[6-(1-hydroxy-1-methyl-ethyl)-3-pyridyl]propyl]benzamide], COc1cccc(C(=O)NCC(CC2CC2)c2ccc(C(F)(F)F)nc2)c1Cl (single isomer, unassigned; (-)) [(−)2-chloro-N-[3-cyclopropyl-2-[6-(trifluoromethyl)-3-pyridy] [(−)2-chloro-N-[3-cyclopropyl-2-[6-(trifluoromethyl)-3-pyridyl]propyl]-3-methoxy-benzamide] is 7.1-fold lower in IC50: 30 nM for the first, 4.2 nM for the second.

Compared with CC(CNC(=O)c1cccc(Cl)c1Cl)(CC1CC1)c1cnc(C(F)(F)F)nc1 (single isomer, unassigned; (+)) [(+)2,3-dichloro-N-[3-cyclopropyl-2-methyl-2-[2-(trifluoromethyl)pyrimidin-5-yl]propyl]benzamide], O=C(NCC(CC1(F)CC1)c1cnc(C(F)(F)F)nc1)c1cccc(Cl)c1Cl (centres unmarked) [2,3-dichloro-N-[3-(1-fluorocyclopropyl)-2-[2-(trifluoromethyl)pyrimidin-5-yl]propyl]benzamide] is 8-fold lower in IC50: 74 nM for the first, 9.3 nM for the second. The second is the more potent here.

Compared with O=C(NCC(CC1CC1)c1ccc(C(F)(F)F)nc1)c1ccccc1Cl (centres unmarked) [2-chloro-N-[3-cyclopropyl-2-[6-(trifluoromethyl)-3-pyridyl]propyl]benzamide], O=C(NCC(CC1CC1)c1ccc(C(F)(F)F)nc1)c1c(F)cccc1Cl (single isomer, unassigned; (+)) [(+)2-chloro-N-[3-cyclopropyl-2-[6-(trifluoromethyl)-3-pyridy] [(+)2-chloro-N-[3-cyclopropyl-2-[6-(trifluoromethyl)-3-pyridyl]propyl]-6-fluoro-benzamide] is 15-fold higher in IC50: 3.4 nM for the first, 50 nM for the second. The first is the more potent here.

Going from O=C(NCC(CC1(C(F)(F)F)CC1)c1cnc(C(F)(F)F)nc1)c1cccc(F)c1Cl (single isomer, unassigned; (+)) [(+)2-chloro-3-fluoro-N-[3-[1-(trifluoromethyl)cyclopropyl]-2] [(+)2-chloro-3-fluoro-N-[3-[1-(trifluoromethyl)cyclopropyl]-2-[2-(trifluoromethyl)pyrimidin-5-yl]propyl]benzamide] to O=C(NCC(CC1(C(F)(F)F)CC1)c1ccc(C(F)(F)F)nc1)c1cccc(Cl)c1Cl (single isomer, unassigned; (+)) [(+)2,3-dichloro-N-[3-[1-(trifluoromethyl)cyclopropyl]-2-[6-(] [(+)2,3-dichloro-N-[3-[1-(trifluoromethyl)cyclopropyl]-2-[6-(trifluoromethyl)-3-pyridyl]propyl]benzamide], the IC50 rises from 4.5 nM to 12 nM (2.7-fold).

Compared with O=C(NCC1(c2ccc(C(F)(F)F)nc2)CCC(F)(F)CC1)c1cccc(Cl)c1Cl [2,3-dichloro-N-((4,4-difluoro-1-(6-(trifluoromethyl)pyridin-3-yl)cyclohexyl)methyl)benzamide], O=C(NCC1(c2ccc(C(F)(F)F)nc2)CCC(F)(F)CC1)c1cccc(Cl)c1F [3-chloro-N-((4,4-difluoro-1-(6-(trifluoromethyl)pyridin-3-yl)cyclohexyl)methyl)-2-fluorobenzamide] is 2.7-fold higher in IC50: 1.2 nM for the first, 3.2 nM for the second. The first is the more potent here.

Cc1ccc(Cl)c(C(=O)NCC2(c3cccnc3)CCCC2)c1 [2-Chloro-5-methyl-N-(1-pyridin-3-yl-cyclopentylmethyl)-benzamide] and Cc1ccc(Cl)c(C(=O)NCC2(c3ccc(C)nc3)CCOCC2)c1 [2-Chloro-5-methyl-N-[4-(6-methyl-pyridin-3-yl)-tetrahydro-pyran-4-ylmethyl]-benzamide] are within 1.5-fold of each other in IC50: 2900 nM for the first, 3400 nM for the second.

Going from COc1cccc(C(=O)NCC(CC2CC2)c2cnc(C(F)(F)F)nc2)c1C (single isomer, unassigned; (+)) [(+)N-[3-cyclopropyl-2-[2-(trifluoromethyl)pyrimidin-5-yl]pro] [(+)N-[3-cyclopropyl-2-[2-(trifluoromethyl)pyrimidin-5-yl]propyl]-3-methoxy-2-methyl-benzamide] to O=C(NCC(CC1CC1)c1cnc(C(F)(F)F)nc1)c1c(Cl)cccc1Cl (single isomer, unassigned; (+)) [(+)2,6-dichloro-N-[3-cyclopropyl-2-[2-(trifluoromethyl)pyrim] [(+)2,6-dichloro-N-[3-cyclopropyl-2-[2-(trifluoromethyl)pyrimidin-5-yl]propyl]benzamide], the IC50 falls from 9 nM to 3.8 nM (2.4-fold). The second is the more potent here.

Compared with Cc1ncc(C2(CNC(=O)c3cccc(Cl)c3Cl)CCOC2)cn1 (centres unmarked) [2,3-dichloro-N-((3-(2-methylpyrimidin-5-yl)tetrahydrofuran-3-yl)methyl)benzamide], O=C(NCC1(c2ccc(Cl)cc2)CCOCC1)c1cccc(Cl)c1Cl [2,3-dichloro-N-((4-(4-chlorophenyl)tetrahydro-2H-pyran-4-yl)methyl)benzamide] is 2.9-fold higher in IC50: 15 nM for the first, 43 nM for the second.

Going from Cc1ccc(Cl)c(C(=O)NCC2(c3ccc(F)nc3)CCC(F)(F)CC2)c1 [2-chloro-N-[[4,4-difluoro-1-(6-fluoro-3-pyridyl)cyclohexyl]methyl]-5-methyl-benzamide] to Cc1c(F)cccc1C(=O)NCC1(c2ccc(C(F)(F)F)nc2)CCC(F)(F)CC1 [N-((4,4-difluoro-1-(6-(trifluoromethyl)pyridin-3-yl)cyclohexyl)methyl)-3-fluoro-2-methylbenzamide], the IC50 rises from 0.76 nM to 4 nM (5.3-fold). The first is the more potent here.

First: O=C(NCC(CC1CC1)c1ccc(C(F)(F)F)nc1)c1ccccc1Cl (single isomer, unassigned; (-)) [Example 4b, (−)-2-Chloro-N-[3-cyclopropyl-2-[6-(trifluoromethyl)-3-pyridyl]propyl]benzamide]
Second: O=C(NCC(CC1CC1)c1ccc(C(F)F)nc1)c1cccc(F)c1Cl (single isomer, unassigned; (-)) [(−)2-chloro-N-[3-cyclopropyl-2-[6-(difluoromethyl)-3-pyridyl] [(−)2-chloro-N-[3-cyclopropyl-2-[6-(difluoromethyl)-3-pyridyl]propyl]-3-fluoro-benzamide]
The IC50 of the first is 8.3-fold lower: 2.3 nM for the first, 19 nM for the second. The first is the more potent here.

Compared with O=C(NCC(c1ccccc1)c1ccnnc1)c1cccc(Cl)c1Cl (centres unmarked) [2,3-dichloro-N-(2-phenyl-2-pyridazin-4-yl-ethyl)benzamide], O=C(NCC(c1ccccc1)c1ccnnc1)c1ccc(Cl)cc1Cl (centres unmarked) [2,4-dichloro-N-(2-phenyl-2-pyridazin-4-yl-ethyl)benzamide] is 7.7-fold higher in IC50: 94 nM for the first, 720 nM for the second.

First: COc1cccc(C(=O)NCC2(c3ccc(C(F)(F)F)nc3)CCC(F)(F)CC2)c1Cl [2-chloro-N-((4,4-difluoro-1-(6-(trifluoromethyl)pyridin-3-yl)cyclohexyl)methyl)-3-methoxybenzamide]
Second: O=C(NCC(CC1(C(F)(F)F)CC1)c1ccc(C(F)(F)F)nc1)c1ccccc1F (centres unmarked) [2-fluoro-N-[3-[1-(trifluoromethyl)cyclopropyl]-2-[6-(trifluoromethyl)-3-pyridyl]propyl]benzamide]
The IC50 of the first is 61-fold lower: 7.1 nM for the first, 430 nM for the second. The first is the more potent here.

Going from Cc1ncc(C(CNC(=O)c2ccccc2Cl)c2ccncc2)cn1 (centres unmarked) [2-chloro-N-[2-(2-methylpyrimidin-5-yl)-2-(4-pyridyl)ethyl]benzamide] to Cc1ncc(C(CNC(=O)c2cccc(F)c2Cl)c2ccncc2)cn1 (centres unmarked) [2-chloro-3-fluoro-N-[2-(2-methylpyrimidin-5-yl)-2-(4-pyridyl)ethyl]benzamide], the IC50 falls from 1300 nM to 860 nM (1.5-fold).

First: O=C(NCC(c1ccc(Cl)cc1)C1CCOCC1)c1cccc(Cl)c1Cl (centres unmarked) [2,3-dichloro-N-[2-(4-chlorophenyl)-2-tetrahydropyran-4-yl-ethyl]benzamide]
Second: O=C(NCC(CC1(C(F)F)CC1)c1ccc(C2CC2)nc1)c1cccc(Cl)c1Cl (centres unmarked) [2,3-dichloro-N-[2-(6-cyclopropyl-3-pyridyl)-3-[1-(difluoromethyl)cyclopropyl]propyl]benzamide]
The IC50 of the first is 2.1-fold higher: 1.6 nM for the first, 0.76 nM for the second. The second is the more potent here.

First: Cc1ncc(C(CNC(=O)c2cccc(Cl)c2Cl)CC2(C(F)(F)F)CC2)cn1 (single isomer, unassigned; (+)) [(+)2,3-dichloro-N-[2-(2-methylpyrimidin-5-yl)-3-[1-(trifluor] [(+)2,3-dichloro-N-[2-(2-methylpyrimidin-5-yl)-3-[1-(trifluoromethyl)cyclopropyl]propyl]benzamide]
Second: Cc1ncc(C(CNC(=O)c2ccccc2Cl)CC2(C(F)(F)F)CC2)cn1 (single isomer, unassigned; (-)) [(−)2-chloro-N-[2-(2-methylpyrimidin-5-yl)-3-[1-(trifluoromet] [(−)2-chloro-N-[2-(2-methylpyrimidin-5-yl)-3-[1-(trifluoromethyl)cyclopropyl]propyl]benzamide]
The IC50 of the first is 430-fold lower: 1.5 nM for the first, 650 nM for the second.

Same assay, conditions: listed as (−)2-chloro-N-[3-cyclopropyl-2-(6-fluoro-3-pyridyl)propyl]benzamide

O=C(NCC(CC1CC1)c1ccc(F)nc1)c1ccccc1Cl (single isomer, unassigned; (-)) [Example 4x, (−)-2-chloro-N-(3-cyclopropyl-2-(6-fluoropyridin-3-yl)propyl)benzamide] was tested, and the IC50 was 16 nM.
